Measurements reported in patent US20080039455A1, “PYRAZOLOPYRIMIDINES AND SALTS THEREOF, PHARMACEUTICAL COMPOSITIONS COMPRISING SAME, METHODS OF PREPARING SAME AND USES OF SAME” (priority 2006, published 2008).

Target: T1, human recombinant ALK1 (GST fused to ALK1 intracellular domain [His142-Gln503]) (Homo sapiens, UniProt P37023)
T1 construct: GST fused to ALK1 intracellular domain [His142-Gln503]; made in house
T1 sequence (P37023 142-503): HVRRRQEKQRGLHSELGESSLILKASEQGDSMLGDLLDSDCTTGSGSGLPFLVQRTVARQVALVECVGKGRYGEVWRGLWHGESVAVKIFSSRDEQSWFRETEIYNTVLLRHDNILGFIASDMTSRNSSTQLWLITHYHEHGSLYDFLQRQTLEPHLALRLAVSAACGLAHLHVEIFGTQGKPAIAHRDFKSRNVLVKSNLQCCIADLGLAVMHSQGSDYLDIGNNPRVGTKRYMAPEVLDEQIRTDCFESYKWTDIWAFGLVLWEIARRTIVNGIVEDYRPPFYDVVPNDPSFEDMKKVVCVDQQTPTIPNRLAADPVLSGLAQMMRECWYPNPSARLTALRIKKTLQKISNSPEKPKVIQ
Assay: ALK1-Kinase Flashplate-Assay
Type: biochemical
Conditions: 0.5 μM ATP, biotinylated α-casein substrate; read-out: Assay 1 (ALK1-Kinase Flashplate-Assay IC50 class)
Outline: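 Radiometric Flashplate assay at 20 °C: GST-ALK1 intracellular domain (5 ng/well) with 1 μM biotinylated bovine α-casein, 0.5 μM ATP plus [γ-33P]ATP in Tris pH 8.0, 1 mM MnCl2, 1% or 5% DMSO, 60 min. Normalised to no-inhibitor (0%) and 10 mM EDTA (100%); IC50 by 4-parameter fit.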

IC50	SMILES
< 1 µM	Oc1ccc(Nc2ccn3ncc(-c4ccc(O)cc4)c3n2)cc1 [Example 49, 4-[5-[(4-hydroxyphenyl)amino]pyrazolo[1,5-a]pyrimidin-3-yl]-phenol]
1 to 10 µM	COc1ccc(Nc2ccn3ncc(-c4ccsc4)c3n2)cn1 [Example 464, (6-Methoxy-pyridin-3-yl)-(3-thiophen-3-yl-pyrazolo[1,5-a]pyrimidin-5-yl)-amine]
< 1 µM	CS(=O)(=O)Nc1cccc(-c2cnn3ccc(Nc4ccc(N5CCOCC5)cc4)nc23)c1 [Example 447, N-{3-[5-(4-Morpholin-4-yl-phenylamino)-pyrazolo[1,5-a]pyrimidin-3-yl]-phenyl}-methanesulfonamide]
1 to 10 µM	c1ccc2c(-c3cnn4ccc(Nc5ccc(N6CCOCC6)cc5)nc34)cccc2c1 [Example 412, (4-Morpholin-4-yl-phenyl)-(3-naphthalen-1-yl-pyrazolo[1,5-a]pyrimidin-5-yl)-amine]
1 to 10 µM	COc1ccc(-c2cnn3ccc(NCc4ccncc4)nc23)cc1 [Example 154, [3-(4-Methoxy-phenyl)-pyrazolo[1,5-a]pyrimidin-5-yl]-pyridin-4-ylmethyl-amine]
1 to 10 µM	CS(=O)(=O)Nc1cccc(-c2cnn3ccc(Nc4ccc(Oc5ccccc5)cc4)nc23)c1 [Example 42, N-{3-[5-(4-Phenoxy-phenylamino)-pyrazolo[1,5-a]pyrimidin-3-yl]-phenyl}-methanesulfonamide]
1 to 10 µM	CN(C)CCNc1ccn2ncc(-c3ccc(C(=O)O)cc3)c2n1 [Example 136, 4-[5-(2-Dimethylamino-ethylamino)-pyrazolo[1,5-a]pyrimidin-3-yl]-benzoic acid]
1 to 10 µM	CC(=O)c1cccc(-c2cnn3ccc(Nc4ccc(NS(=O)(=O)c5ccc(C)cc5)cc4)nc23)c1 [Example 201, N-{4-[3-(3-Acetyl-phenyl)-pyrazolo[1,5-a]pyrimidin-5-ylamino]-phenyl}-4-methyl-benzenesulfonamide]
1 to 10 µM	COc1ccc(-c2cnn3ccc(Nc4ccccc4)nc23)cc1OC [Example 478, [3-(3,4-Dimethoxy-phenyl)-pyrazolo[1,5-a]pyrimidin-5-yl]-phenyl-amine]
1 to 10 µM	CC(=O)c1cccc(-c2cnn3ccc(NCc4ccncc4)nc23)c1 [Example 216, 1-(3-{5-[(Pyridin-4-ylmethyl)-amino]-pyrazolo[1,5-a]pyrimidin-3-yl}-phenyl)-ethanone]
1 to 10 µM	CN(C)CCNC(=O)c1cccc(-c2cnn3ccc(Nc4ccc(O)cc4)nc23)c1 [Example 326, N-(2-Dimethylamino-ethyl)-3-[5-(4-hydroxy-phenylamino)-pyrazolo[1,5-a]pyrimidin-3-yl]-benzamide]
< 1 µM	COc1ncc(-c2cnn3ccc(Nc4ccc(O)cc4)nc23)c(OC)n1 [Example 46, 4-[3-(2,4-Dimethoxy-pyrimidin-5-yl)-pyrazolo[1,5-a]pyrimidin-5-ylamino]-phenol]
< 1 µM	COc1cc(-c2cnn3ccc(NCCO)nc23)cc(OC)c1OC [Example 120, 2-[3-(3,4,5-Trimethoxy-phenyl)-pyrazolo[1,5-a]pyrimidin-5-ylamino]-ethanol]
1 to 10 µM	c1cncc(CNc2ccn3ncc(-c4ccsc4)c3n2)c1 [Example 291, Pyridin-3-ylmethyl-(3-thiophen-3-yl-pyrazolo[1,5-a]pyrimidin-5-yl)-amine]
< 1 µM	COc1ccc(-c2cnn3ccc(NCc4ccncc4)nc23)cc1OC [Example 65, [3-(3,4-Dimethoxy-phenyl)-pyrazolo[1,5-a]pyrimidin-5-yl]-pyridin-4-ylmethyl-amine]
1 to 10 µM	NC(=O)c1cccc(-c2cnn3ccc(NCc4cccnc4)nc23)c1 [Example 223, 3-{5-[(Pyridin-3-ylmethyl)-amino]-pyrazolo[1,5-a]pyrimidin-3-yl}-benzamide]
1 to 10 µM	COc1cccc(-c2cnn3ccc(Nc4cccc(Cl)c4)nc23)c1 [Example 444, (3-Chloro-phenyl)-[3-(3-methoxy-phenyl)-pyrazolo[1,5-a]pyrimidin-5-yl]-amine]
1 to 10 µM	OCc1cccc(-c2cnn3ccc(NC4CCC(O)CC4)nc23)c1 (stereo not shown) [Example 158, 4-[3-(3-Hydroxymethyl-phenyl)-pyrazolo[1,5-a]pyrimidin-5-ylamino]-cyclohexanol]
1 to 10 µM	COc1ccc(Nc2ccn3ncc(-c4ccc(O)cc4)c3n2)cn1 [Example 13, 4-[5-(6-Methoxy-pyridin-3-ylamino)-pyrazolo[1,5-a]pyrimidin-3-yl]-phenol]
< 1 µM	c1cncc(CNc2ccn3ncc(-c4cccc5ccccc45)c3n2)c1 [Example 377, (3-Naphthalen-1-yl-pyrazolo[1,5-a]pyrimidin-5-yl)-pyridin-3-ylmethyl-amine]

IC50	SMILES
< 1 µM	COc1cncc(-c2cnn3ccc(Nc4ccc(O)cc4)nc23)c1 [Example 87, 4-[3-(5-Methoxy-pyridin-3-yl)-pyrazolo[1,5-a]pyrimidin-5-ylamino]-phenol]
1 to 10 µM	c1cc(N2CCOCC2)ccc1Nc1ccn2ncc(-c3ccc4c(c3)OCO4)c2n1 [Example 472, (3-Benzo[1,3]dioxol-5-yl-pyrazolo[1,5-a]pyrimidin-5-yl)-(4-morpholin-4-yl-phenyl)-amine]
1 to 10 µM	COc1ccc(-c2cnn3ccc(Nc4ccc(Oc5ccccc5)cc4)nc23)cc1OC [Example 33, [3-(3,4-Dimethoxy-phenyl)-pyrazolo[1,5-a]pyrimidin-5-yl]-(4-phenoxy-phenyl)-amine]
< 1 µM	COc1cc(-c2cnn3ccc(Nc4ccc(C(C)C)cc4)nc23)cc(OC)c1OC [Example 97, (4-Isopropyl-phenyl)-[3-(3,4,5-trimethoxy-phenyl)-pyrazolo[1,5-a]pyrimidin-5-yl]-amine]
1 to 10 µM	Oc1ccc(Nc2ccn3ncc(-c4ccc5c(c4)OCO5)c3n2)cc1 [Example 45, 4-(3-Benzo[1,3]dioxol-5-yl-pyrazolo[1,5-a]pyrimidin-5-ylamino)-phenol]
1 to 10 µM	COc1ccc(-c2cnn3ccc(Nc4ccc(O)cc4)nc23)cc1 [Example 146, 4-[3-(4-Methoxy-phenyl)-pyrazolo[1,5-a]pyrimidin-5-ylamino]-phenol]
1 to 10 µM	COc1ccc(-c2cnn3ccc(NCc4cccnc4)nc23)cc1 [Example 167, [3-(4-Methoxy-phenyl)-pyrazolo[1,5-a]pyrimidin-5-yl]-pyridin-3-ylmethyl-amine]
1 to 10 µM	COc1ccc(-c2cnn3ccc(Nc4ccc(N5CCOCC5)cc4)nc23)cc1 [Example 173, [3-(4-Methoxy-phenyl)-pyrazolo[1,5-a]pyrimidin-5-yl]-(4-morpholin-4-yl-phenyl)-amine]
< 1 µM	Oc1ccc(-c2cnn3ccc(NCc4ccncc4)nc23)cc1 [Example 66, 4-{5-[(Pyridin-4-ylmethyl)-amino]-pyrazolo[1,5-a]pyrimidin-3-yl}-phenol]
< 1 µM	Clc1cccc(-c2cnn3ccc(NCc4ccncc4)nc23)c1 [Example 395, [3-(3-Chloro-phenyl)-pyrazolo[1,5-a]pyrimidin-5-yl]-pyridin-4-ylmethyl-amine]
1 to 10 µM	Cc1ccc(Nc2ccn3ncc(-c4cccc(N)c4)c3n2)cc1NS(C)(=O)=O [Example 186]
1 to 10 µM	Fc1cccc(-c2cnn3ccc(NCc4cccnc4)nc23)c1 [Example 405, [3-(3-Fluoro-phenyl)-pyrazolo[1,5-a]pyrimidin-5-yl]-pyridin-3-ylmethyl-amine]
1 to 10 µM	COc1ccccc1-c1cnn2ccc(Nc3ccc(O)cc3)nc12 [Example 84, 4-[3-(2-Methoxy-phenyl)-pyrazolo[1,5-a]pyrimidin-5-ylamino]-phenol]
1 to 10 µM	OC1CCC(Nc2ccn3ncc(-c4ccc(F)c(Cl)c4)c3n2)CC1 (stereo not shown) [Example 373, 4-[3-(3-Chloro-4-fluoro-phenyl)-pyrazolo[1,5-a]pyrimidin-5-ylamino]-cyclohexanol]
< 1 µM	COc1cc(Nc2ccn3ncc(-c4cc(OC)c(OC)c(OC)c4)c3n2)cc(OC)c1OC [Example 77, (3,4,5-Trimethoxy-phenyl)-[3-(3,4,5-trimethoxy-phenyl)-pyrazolo[1,5-a]pyrimidin-5-yl]-amine]
1 to 10 µM	Clc1cccc(-c2cnn3ccc(NCc4cccnc4)nc23)c1 [Example 402, [3-(3-Chloro-phenyl)-pyrazolo[1,5-a]pyrimidin-5-yl]-pyridin-3-ylmethyl-amine]
1 to 10 µM	Cc1ccc(Nc2ccn3ncc(-c4cccc(CO)c4)c3n2)cc1NS(C)(=O)=O [Example 431, N-{5-[3-(3-Hydroxymethyl-phenyl)-pyrazolo[1,5-a]pyrimidin-5-ylamino]-2-methyl-phenyl}-methanesulfonamide]
< 1 µM	c1cc(CNc2ccn3ncc(-c4ccsc4)c3n2)ccn1 [Example 63, Pyridin-4-ylmethyl-(3-thiophen-3-yl-pyrazolo[1,5-a]pyrimidin-5-yl)-amine]
1 to 10 µM	N#Cc1ccc(-c2cnn3ccc(Nc4ccc(O)cc4)nc23)cc1 [Example 86, 4-[5-(4-Hydroxy-phenylamino)-pyrazolo[1,5-a]pyrimidin-3-yl]-benzonitrile]
1 to 10 µM	CC(=O)Nc1cccc(-c2cnn3ccc(Nc4ccc(N5CCOCC5)cc4)nc23)c1 [Example 29, N-{3-[5-(4-Morpholin-4-yl-phenylamino)-pyrazolo[1,5-a]pyrimidin-3-yl]-phenyl}-acetamide]
